# Results taken from patent US20150065440A1 (Progen Pharmaceuticals Limited, priority 2007, published 2015).
# Where a name gives a salt, the structure may show the parent alone. Read-outs that look alike come from different tables or passages of the source.
# Assays:
# [1] = biological target: T1, VEGF (Homo sapiens, UniProt P15692); test: Growth factor binding assay (SPR solution affinity), VEGF; details: HBS-EP buffer, 25° C.
# T1 sequence (P15692 207-395): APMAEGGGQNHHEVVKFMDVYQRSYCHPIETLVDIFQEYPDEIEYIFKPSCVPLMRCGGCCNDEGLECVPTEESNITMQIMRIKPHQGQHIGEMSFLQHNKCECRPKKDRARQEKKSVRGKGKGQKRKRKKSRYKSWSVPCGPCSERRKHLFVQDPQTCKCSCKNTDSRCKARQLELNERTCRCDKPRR
# Method: (§1) Binding affinities of compounds for the growth factors FGF-1, FGF-2 and VEGF were measured using a surface plasmon resonance (SPR) based solution affinity assay.^9 Heparin-coated sensorchips used for this assay were prepared via immobilisation of biotinylated BSA-heparin on a streptavidin-coated sensorchip, or via aldehyde coupling using either adipic acid dihydrazide or 1,4-diaminobutane.^9 For each Kd measurement, solutions were prepared containing a fixed concentration of protein and varying concentrations of the ligand in buffer. Ligands binding to FGF-1 and VEGF were measured in HBS-EP buffer (10 mM HEPES, pH 7.4, 150 mM NaCl, 3.0 mM EDTA and 0.005% (v/v) polysorbate 20), while binding to FGF-2 was measured in HBS-EP buffer containing 0.3 M NaCl. Prior to injection, samples were maintained at 4° C. to maximise protein stability. For each assay mixture, 50-200 μL of solution was injected at 5-40 μL/min and the relative binding response measured. All surface binding experiments were performed at 25° C. The surface was regenerated by injection of 40 μL of 4M NaCl at 40 μL/min, followed by injection of 40 μL of buffer at 40 μL/min.
# (§2) Sensorgram data were analysed using the BIAevaluation software (BIAcore) and Kd values determined as previously described.^9 Where Kd values were measured in duplicate, the values represent the average of the duplicate measurements.
# [2] = biological target: FGF-1 (Homo sapiens, UniProt P05230); test: Growth factor binding assay (SPR solution affinity), FGF-1
# Method: as §1, §2
# [3] = biological target: FGF-2 (Homo sapiens, UniProt P09038); test: Growth factor binding assay (SPR solution affinity), FGF-2; details: SPR, HBS-EP buffer containing 0.3 M NaCl, 25° C.; read-out: Kd FGF-2
# Method: as §1, §2
# [4] = test system: pooled normal human plasma; test: Anticoagulant activity, APTT; details: 0.1 mg/mL in normal pooled human plasma
# Method: APTT measurements were performed on a STAGO STA-Compact Coagulation Analyser using standard protocols according to the manufacturer's instructions. Unfractionated heparin (UFH) was used as a control.
# [5] = test system: normal pooled human plasma; test: Anticoagulant activity, Heptest; details: 0.1 mg/mL in normal pooled human plasma
# [6] = test system: HSV-2; test: Viral plaque number-reduction assay, HSV-2; details: Human alphaherpesvirus 2, read-out: HSV-2 IC50
# Method: (§3) African green monkey kidney (GMK AH1) cells^46 were cultured in Eagle's minimum essential medium (EMEM) supplemented with 2% calf serum, 0.05% Primaton RL substance (Kraft Inc., Norwich, USA) and antibiotics. Human epidermoid carcinoma (HEp-2) cells were cultured in Dulbecco's modified EMEM (DMEM) supplemented with 10% fetal calf serum and antibiotics. […] The RSV strain A-2^50 was used. The RSV stock was prepared as described by Hallak et al.^51 and stored at −70° C. in the presence of 40% sucrose^52.
# (§4) The viral infectivity (the plaque number-reduction) assay and the plaque size-reduction assay were carried out as described previously^17. […] Subsequently, the cells were washed with 2 mL of EMEM and overlaid with 1% methylcellulose solution in EMEM. The plaques were visualized by staining with crystal violet solution after 2 (HSV-2) or 3 (HSV-1) days of incubation at 37° C. […] When the compounds were screened for anti-HSV or anti-RSV activity, mixtures of 200 PFU of the virus and the test compound (100 μg/mL) in serum-free EMEM were incubated for 10 min at room temperature before addition to cells and during the entire period of viral infection of cells and the development of viral plaques. In the plaque size-reduction assay, the compounds were added to cells (in methylcellulose overlay medium) after 2 h period of virus infection of cells in the absence of the inhibitor. After 2-3 days of incubation at 37° C., the viral plaques were visualized by staining the cells with 1% solution of crystal violet. For each compound tested, the images of twenty neighboring plaques were captured using a Leica DC300 digital camera attached to a Leitz-Wetzlar Diavert microscope. The area of each plaque was determined using IM500 image software (Leica). Similar protocols were used for RSV, except that the assays were performed in HEp-2 cells and DMEM supplemented with 2% heat-inactivated fetal calf serum was used instead of EMEM.
# [7] = test system: RSV; test: Viral plaque number-reduction assay, RSV; details: human respiratory syncytial virus, read-out: RSV IC50
# Method: as §3, §4
# [8] = biological target: T2, recombinant human heparanase (Homo sapiens, UniProt Q9Y251); test: Heparanase inhibition assay (fondaparinux cleavage, WST-1); details: read-out: Ki Heparanase; IC50 converted into Ki; fondaparinux 100 μM, pH 5.0
# T2 sequence (Q9Y251 158-543 limits assumed): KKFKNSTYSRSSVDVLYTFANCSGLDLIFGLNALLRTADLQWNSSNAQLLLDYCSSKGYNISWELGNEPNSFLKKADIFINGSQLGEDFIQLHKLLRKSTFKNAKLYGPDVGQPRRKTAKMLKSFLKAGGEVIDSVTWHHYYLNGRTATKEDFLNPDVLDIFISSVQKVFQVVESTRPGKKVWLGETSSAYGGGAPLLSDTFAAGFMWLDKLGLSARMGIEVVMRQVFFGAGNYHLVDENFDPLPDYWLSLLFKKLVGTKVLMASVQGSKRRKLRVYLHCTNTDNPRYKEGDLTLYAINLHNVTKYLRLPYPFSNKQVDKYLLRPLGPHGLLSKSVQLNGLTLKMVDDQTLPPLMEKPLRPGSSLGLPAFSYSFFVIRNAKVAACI
# T2 sequence (Q9Y251 36-109 limits assumed): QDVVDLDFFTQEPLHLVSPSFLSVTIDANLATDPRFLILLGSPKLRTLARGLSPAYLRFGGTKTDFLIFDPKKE
# [9] = SPR, HBS-EP buffer, 25° C., read-out: Kd FGF-1
# FGF-2, sequence (P09038 143-288, species assumed): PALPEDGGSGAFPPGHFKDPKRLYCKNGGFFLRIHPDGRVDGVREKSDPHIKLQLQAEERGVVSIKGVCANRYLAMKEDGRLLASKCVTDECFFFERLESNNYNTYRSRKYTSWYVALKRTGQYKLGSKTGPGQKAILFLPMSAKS
# FGF-1, sequence (P05230 whole entry, species assumed): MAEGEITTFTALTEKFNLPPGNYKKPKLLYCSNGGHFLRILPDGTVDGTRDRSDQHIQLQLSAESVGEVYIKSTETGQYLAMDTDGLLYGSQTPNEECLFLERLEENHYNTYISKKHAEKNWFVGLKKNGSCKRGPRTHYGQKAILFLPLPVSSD
SMILES,Kd [1] [nM],Kd [2] [nM],Kd [3] [nM],APTT [4] [s],Heptest [5] [s],IC50 [6] [µg/mL],IC50 [7] [µg/mL],"Kd [2, 9] [nM]",Ki [8] [nM]
"CC(C)CCC[C@@H](C)[C@H]1CC[C@H]2[C@@H]3CCC4CC(O[C@@H]5O[C@H](COS(=O)(=O)O)[C@@H](O[C@@H]6O[C@H](COS(=O)(=O)O)[C@H](OS(=O)(=O)O)[C@H](OS(=O)(=O)O)[C@H]6OS(=O)(=O)O)[C@H](OS(=O)(=O)O)[C@H]5OS(=O)(=O)O)CC[C@]4(C)[C@H]3CC[C@]12C (stereo partly drawn) [Compound 112, 3′-Cholestanyl 2,3,4,6-tetra-O-sulfo-β-D-galactopyranosyl-(1→4)-2,3,6-tri-O-sulfo-β-D-glucopyranoside, heptasodium salt]",430 ± 140,900 ± 150,2100 ± 300,38.9,25.4,0.45,2.4,,
"CC(=O)OC1CC2C(CCC3CC(OS(=O)(=O)O)CCC32C)C2CCC(C(C)CCC(=O)NC3OC(COS(=O)(=O)O)C(OC4OC(COS(=O)(=O)O)C(OC5OC(COS(=O)(=O)O)C(OC6OC(COS(=O)(=O)O)C(OS(=O)(=O)O)C(OS(=O)(=O)O)C6OS(=O)(=O)O)C(OS(=O)(=O)O)C5OS(=O)(=O)O)C(OS(=O)(=O)O)C4OS(=O)(=O)O)C(OS(=O)(=O)O)C3OS(=O)(=O)O)C12C [Compound 83, N-(2,3,4,6-tetra-O-sodiumsulfonato-α-D-glucopyranosyl-(1→4)-2,3,6-tri-O-sodiumsulfonato-α-D-glucopyranosyl-(1→4)-2,3,6-tri-O-sodiumsulfonato-α-D-glucopyranosyl-(1→4)-2,3,6-tri-O-sodiumsulfonato-β-D-glucopyranosyl)-4-((3R,10S,12S,13R)-3-O-sodiumsulfonato-12-O-acetyl-10,13-dimethylhexadecahydro-1H-cyclopenta[a]phenanthren-17-yl)pentanamide]",7.95 ± 0.07,,50 ± 4,41.0,26.8,,,1.25 ± 0.07,20 ± 5
"CC(C)CCCC(C)C1CCC2C3CCC4CC(OC5OC(COS(=O)(=O)O)C(OS(=O)(=O)O)C(OS(=O)(=O)O)C5OC5OC(COS(=O)(=O)O)C(OS(=O)(=O)O)C(OC6OC(COS(=O)(=O)O)C(OS(=O)(=O)O)C(OC7OC(COS(=O)(=O)O)C(OS(=O)(=O)O)C(OC8OC(COS(=O)(=O)O)C(OS(=O)(=O)O)C(OS(=O)(=O)O)C8OS(=O)(=O)O)C7OS(=O)(=O)O)C6OS(=O)(=O)O)C5OS(=O)(=O)O)CCC4(C)C3CCC12C [Compound 27, 3β-Cholestanyl 2,3,4,6-tetra-O-sodium sulfonato-α-D-mannopyranosyl-(1→3)-2,4,6-tri-O-sodium sulfonato-α-D-mannopyranosyl-(1→3)-2,4,6-tri-O-sodium sulfonato-α-D-mannopyranosyl-(1→3)-2,4,6-tri-O-sodium sulfonato-α-D-mannopyranosyl-(1→2)-3,4,6-tri-O-sodium sulfonato-α-D-mannopyranoside]",1.04 ± 0.19,,39 ± 6,63.3,29.6,,,0.24 ± 0.1,5.5 ± 2.6
"CCCCCCCCCCCCCCCCCC(=O)NCCCOC1OC(COS(=O)(=O)O)C(OS(=O)(=O)O)C(OS(=O)(=O)O)C1OC1OC(COS(=O)(=O)O)C(OS(=O)(=O)O)C(OC2OC(COS(=O)(=O)O)C(OS(=O)(=O)O)C(OC3OC(COS(=O)(=O)O)C(OS(=O)(=O)O)C(OC4OC(COS(=O)(=O)O)C(OS(=O)(=O)O)C(OS(=O)(=O)O)C4OS(=O)(=O)O)C3OS(=O)(=O)O)C2OS(=O)(=O)O)C1OS(=O)(=O)O [Compound 44, 3-Stearamidopropyl 2,3,4,6-tetra-O-sodium sulfonato-α-D-mannopyranosyl-(1→3)-2,4,6-tri-O-sodium sulfonato-α-D-mannopyranosyl-(1→3)-2,4,6-tri-O-sodium sulfonato-α-D-mannopyranosyl-(1→3)-2,4,6-tri-O-sodium sulfonato-α-D-mannopyranosyl-(1→2)-3,4,6-tri-O-sodium sulfonato-α-D-mannopyranoside]",2.7 ± 0.5,,80 ± 40,217.0,58.5,,,0.17 ± 0.07,4.4 ± 1.4
